Here are results for one compound from patent US20130310352A1, “DEXAMETHASONE COMBINATION THERAPY” (priority 2010, published 2013).

The structures appear in SMILES notation.

Format in all cases: cell-based, human
Assay [1] deals with MM cell lines ARP1, ARK, MM.1S, MM.1R and U266. The assay can be described thus: MTS cell growth assay, all tested MM cell lines. The following applies: 0 to 1 mM, 1 or 3 days. The protocol: (§1) MM cell lines ARP1, ARK, MM.1S, MM.1R and U266 were maintained in RPMI-1640 medium supplemented with 10% fetal bovine serum, 100 U/ml penicillin and 100 μg/ml streptomycin at 37° C. and 5% CO2 Primary MM cells and MM BMSCs were isolated from bone marrow aspirates of myeloma patients. PBMCs were obtained from healthy volunteers. The study was approved by the Institutional Review Board at The University of Texas M.D. Anderson Cancer Center. Anti-caspase-3, caspase-9, PARP, Bim, XIAP, cyclin D1, pp 70S6K (Thr389) and p27(Kip1) antibodies were purchased from Cell Signaling. Anti-bcl-2, Bc1-XL, Akt, pAkt (Thr 308), pAkt (Ser 473), p70S6K and β-actin antibodies were purchased from Santa Cruz. Compound A was dissolved in DMSO at 10 mM as stock solution. Dexamethasone and Propidium iodide (PI) were purchased from Sigma-Aldrich. Recombinant human IL6 was purchased from R&D Systems. FITC conjugated Annexin V was obtained from Invitrogen.
All experiments were performed in triplicate.
(A). Five MM cell lines ARP1, ARK, MM.1S, MM.1R and U266 were cultured in the presence of 0 to 1 mM compound A. Cells were harvested after 1 day or 3 days of treatment. Compound A induced MM cell apoptosis were measured by Annexin V staining as described in Materials and Methods. (B). Same MM cell lines were treated with 0 to 1 mM compound A for 1 or 3 days. Cell growths were assessed by MTS assay. (C). […]
A general note: Formazan colour is commonly taken as a measure of viable cells.

The test system is the same in assay [2]. Kind of assay: Annexin V apoptosis assay, MM cell lines.
Procedure: Briefly, MM cells were cultured in 24-well plates and treated with 0 to 1 mM final concentrations of compound A for 24 or 72 hours. The cells were washed twice with cold PBS and resuspended in Annexin V binding buffer (Invitrogen). MM cells were stained with FITC-conjugated Annexin V and propidium iodide (PI) for 15 min at room temperature. Apoptotic cells were determined as Annexin V positive cells.
To evaluate the effect of compound A on myeloma cells, MM cell lines ARP1, ARK, MM.1S, MM.1R and U266 were treated with different doses of compound A for 24 hours or 72 hours. Compound A induced MM cells apoptosis were measured as described in Materials and Methods.
Five MM cell lines ARP1, ARK, MM.1S, MM.1R and U266 were cultured in the presence of 0 to 1 mM compound A. Cells were harvested after 1 day or 3 days of treatment. Compound A induced MM cell apoptosis were measured by Annexin V staining as described in Materials and Methods. […] Same MM cell lines were treated with 0 to 1 mM compound A for 1 or 3 days. […] Representative histograms of primary MM cells treated with compound A. (D). […] Cells were treated with different doses of compound A for 1 day.
For assay [3], the system named is caspase 3, caspase 9 and PARP in ARP1, MM.1S and MM.1R. Kind of assay: Western blotting, caspases activation. The conditions noted are these: 10 μM. The protocol:
as §1
To elucidate compound A induced MM cell apoptosis, MM cell lines ARP1, MM.1S and MM.1R, treated with or without compound A for 24 hours, were assessed by Western blotting analysis.
(A). […] Compound A induced activation and cleavage of caspase-3, caspase-9 and PARP is shown. (B). Same MM cells treated with 10 μM compound A were lysed for western blotting. (C) RP1 cells were treated with 10 μM compound A for 1, 6, 12 and 24 hours.
(In general: Immunoblotting shows a protein as a band on a membrane.)

For assay [4], the system named is BimS, XIAP and Bc1-XL in MM cells. Kind of assay: Immunoblotting, apoptosis regulatory factors. The following applies: 10 μM compound A. The protocol: as §1
Next, the expressions of apoptosis regulatory factors was tested. […] Bim is a pro-apoptotic factor belonging to Bc1-2 family (O'Connor L, Strasser A, O'Reilly L A, et al. Bim: a novel member of the Bc1-2 family that promotes apoptosis. EMBO J. 1998; 17 (2):384-395). Bim has three major isoforms generated by alternative splicing, BimEL, BimL and BimS. The shortest form BimS is the most cytotoxic isoform (Weber A, Paschen S A, Heger K, et al. BimS-induced apoptosis requires mitochondrial localization but not interaction with anti-apoptotic Bel-2 proteins. J. Cell Biol. 2007; 177 (4):625-636). Previous work has shown that the transcription of Bim is regulated by the forkhead transcription factor FKHR-L1, a downstream effector of PI3K (Dijkers P F, Medema R H, Lammers J W, Koenderman L, Coffer P J. Expression of the pro-apoptotic Bc1-2 family member Bim is regulated by the forkhead transcription factor FKHR-L1. Curr Biol. 2000; 10 (19):1201-1204). […] Thus, compound A induced MM cell apoptosis may be caused by up-regulation of cytotoxic BimS and down-regulation of anti-apoptotic XIAP and Bc1-XL.
(A). […]

The mark [5] stands for this setting: 24 hours, ARP1, MM.1S and MM.1R.

In the case of `Nc1cc(C(F)(F)F)c(-c2cc(N3CCOCC3)nc(N3CCOCC3)n2)cn1` [compound A, 5-(2,6-di-morpholin-4-yl-pyrimidin-4-yl)-4-trifluoromethyl-pyridin-2-ylamine], the “MM cells growth inhibition” value in assay [1] was “dose dependent growth inhibition”. Further, the MM cells apoptosis result in assay [2] (0 to 1 mM, 24 hours or 72 hours, Annexin V) is “in both a dose dependent and a time dependent manner”. Also, the “concentration inducing significant apoptosis in all tested MM cell lines” value in assay [2] (24 hours, P<0.05 compared with control) was not below 10 µM. For the same compound, in assay [3] (setting [5]), the “caspase 3 cleavage” value was “cleavage” and the “caspase 9 cleavage” value is “cleavage”. Also, the PARP cleavage entry in assay [3] (all tested cell lines) was “detected”. Besides, in assay [4], the Bc1-XL expression entry is reported as “down-regulated”, the BimS expression entry was “up-regulated” and the XIAP expression entry is “down-regulated”.
